In US11058677B2, “LFA-1 inhibitor formulations” (Novartis AG, priority 2012, dated 2021):

Assays:
[1] = Systemic clearance; settings: in vivo
[2] = Degradation profile of 1.0% and 5.0% w/v solutions (degradation mechanism); format: physicochemical
Text: The results of these experiments are graphically represented in FIG. 7.

[3] = Stability of 5.0% solution (percentage of total degradates on storage); format: physicochemical; settings: for individual degradate versus ICH qualification threshold: about 2 months
Method: Three separate 5.0% aqueous solutions of the compound of Formula 1 were prepared and allowed to stand at temperatures of about 5° C., 25° C., and 40° C. respectively for a period of about 15 months. The percentage of total degradates was measured for each solution after about every 4 weeks. The results of this experiment are graphically represented in FIG. 1.

[4] = Effect of pH on stability of nitrogen sparged solutions (four months); format: physicochemical; settings: pH 6.0, 7.0, 7.5, about 40° C.
Method: Three solutions of the compound of Formula 1 were prepared. The pH of the first solution was buffered to 6.0, the pH of the second solution was also buffered to 7.0 and pH of the third solution was buffered to 7.5. All the three solutions were sparged with nitrogen were stored at a temperature of about 40° C. for a period of about four months. The percentage of total degradates was measured for each solution after about every four weeks. The results of this experiment are graphically represented in FIG. 9.

[5] = Effect of concentration (and EDTA) on formulation stability; format: physicochemical; settings: solutions with and without 0.1% EDTA
Method: Three different concentrations of the compound of Formula 1, 1.0%, 3.0% and 5.0% were studied. The samples were monitored at a temperature of 40° C. The pH of the three solutions was maintained in the range of 7.0-7.5. The total % degradation of the three solutions was monitored with respect to time. The results of this experiment are graphically represented in FIG. 4.
Solutions both with and without 0.1% EDTA were monitored.

[6] = Effect of sparging with nitrogen on stability; format: physicochemical; settings: about 40° C., about four months
Method: Four separate solutions of the compound of Formula 1 were prepared. The pH of the first solution was buffered to 6.0. The pH of the second solution was also buffered to 6.0 and the solution was additionally sparged with nitrogen. The pH of the third solution was buffered to 7.0. The pH of the fourth solution was also buffered to 7.0 and the solution was further sparged with nitrogen. All the four solutions were stored at a temperature of about 40° C. for a period of about four months. The percentage of total degradates was measured for each solution after about every four weeks. The results of this experiment are graphically represented in FIG. 8.

[7] = Effect of pH on stability, no antioxidant (one month); format: physicochemical; settings: pH 6.0, 7.0, 7.5, 8.0, 8.5, no antioxidant, about 40° C.
Method: Five different solutions of the compound of Formula 1 were prepared. The first solution was buffered to a pH of 6.0, the second solution was buffered to pH 7.0, the third solution was buffered to pH 7.5, the fourth solution was buffered to pH 8.0, and the fifth solution was buffered a pH of 8.5. No antioxidant was added and all solutions were stored at a temperature of about 40° C. for a period of about one month after which the percentage of total degradates was measured for each solution. The results of this experiment are graphically represented in FIG. 12.

[8] = Effect of antioxidants on stability of 3% w/v solutions; format: physicochemical; settings: pH 6.5 with 0.3% w/v thiosulfate salt (40, 50, 60° C.) vs pH 7.5 without antioxidant at 40° C., about nine weeks
Method: Four separate solutions containing 3% w/v of the compound of Formula 1 were prepared. The pH of the first solution was buffered to 6.5, 0.3% w/v thiosulfate salt was added and the solution was stored at 50° C. for about nine weeks. The pH of the second solution was adjusted to 6.5, 0.3% thiosulfate salt was added and the solution was stored at 40° C. for about nine weeks. The pH of the third solution was buffered to 6.5, 0.3% thiosulfate salt was added and the solution was allowed to stand at 60° C. for about nine […]. No antioxidant was added to the fourth solution which was buffered to a pH of 7.5 and allowed to stand at a temperature of 40° C. for about 9 weeks. The percentage of total degradates was measured for each solution after about every 2-4 weeks. The results of this experiment are graphically represented in FIG. 3.

[9] = Effect of various antioxidants on stability at pH 6.5; format: physicochemical; settings: pH about 6.5, about 40° C., about one month, sodium thiosulfate (0.3% w/v) alone vs bisulfite, acetylcysteine, thioglycerol, Vitamin E TPGS, ascorbic acid
Method: Seven different solutions of Formula 1, buffered at a pH of about 6.5, were prepared. Sodium bisulfite (0.2% w/v) and sodium thiosulfate (0.3% w/v) were added to the first solution, sodium bisulfite (0.2% w/v) was added to the second solution, sodium thiosulfate (0.3% w/v) was added to the third solution, acetylcysteine (0.2% w/v) was added to the fourth solution, thioglycerol (0.2% w/v) was added to the fifth solution, Vitamin E TPGS ([…]) was added to the sixth solution, and ascorbic acid (0.3% w/v) was added to the seventh solution. All solutions were stored at a temperature of about 40° C. for a period of about one month after which the percentage of total degradates was measured for each solution. The results of this experiment are graphically represented in FIG. 11.

[10] = Stability of three different formulations (total degradates at 40° C.); format: physicochemical
Method: Three separate solutions of the compound of Formula 1 of same concentration were prepared. The first solution (pH=6.0) was stored at 40° C. without any further additives for about four months. The second solution (pH=6.0) was further treated with a metabisulfite salt and allowed to stand at 40° C. for about four months. The pH of the third solution was buffered to pH 7.5 and allowed to stand at 40° C. for about 4 months without any further additives. The percentage of total degradates was measured for each solution after about every 4 weeks. The results of this experiment are graphically represented in FIG. 2.

[11] = molecular target: LFA-1 interactions with ICAM-1 (Homo sapiens, UniProt P05107+P20701); assay: Inhibition of LFA-1 interactions with ICAM-1
Sequence of LFA-1 interactions with ICAM-1 (P20701 26-1170): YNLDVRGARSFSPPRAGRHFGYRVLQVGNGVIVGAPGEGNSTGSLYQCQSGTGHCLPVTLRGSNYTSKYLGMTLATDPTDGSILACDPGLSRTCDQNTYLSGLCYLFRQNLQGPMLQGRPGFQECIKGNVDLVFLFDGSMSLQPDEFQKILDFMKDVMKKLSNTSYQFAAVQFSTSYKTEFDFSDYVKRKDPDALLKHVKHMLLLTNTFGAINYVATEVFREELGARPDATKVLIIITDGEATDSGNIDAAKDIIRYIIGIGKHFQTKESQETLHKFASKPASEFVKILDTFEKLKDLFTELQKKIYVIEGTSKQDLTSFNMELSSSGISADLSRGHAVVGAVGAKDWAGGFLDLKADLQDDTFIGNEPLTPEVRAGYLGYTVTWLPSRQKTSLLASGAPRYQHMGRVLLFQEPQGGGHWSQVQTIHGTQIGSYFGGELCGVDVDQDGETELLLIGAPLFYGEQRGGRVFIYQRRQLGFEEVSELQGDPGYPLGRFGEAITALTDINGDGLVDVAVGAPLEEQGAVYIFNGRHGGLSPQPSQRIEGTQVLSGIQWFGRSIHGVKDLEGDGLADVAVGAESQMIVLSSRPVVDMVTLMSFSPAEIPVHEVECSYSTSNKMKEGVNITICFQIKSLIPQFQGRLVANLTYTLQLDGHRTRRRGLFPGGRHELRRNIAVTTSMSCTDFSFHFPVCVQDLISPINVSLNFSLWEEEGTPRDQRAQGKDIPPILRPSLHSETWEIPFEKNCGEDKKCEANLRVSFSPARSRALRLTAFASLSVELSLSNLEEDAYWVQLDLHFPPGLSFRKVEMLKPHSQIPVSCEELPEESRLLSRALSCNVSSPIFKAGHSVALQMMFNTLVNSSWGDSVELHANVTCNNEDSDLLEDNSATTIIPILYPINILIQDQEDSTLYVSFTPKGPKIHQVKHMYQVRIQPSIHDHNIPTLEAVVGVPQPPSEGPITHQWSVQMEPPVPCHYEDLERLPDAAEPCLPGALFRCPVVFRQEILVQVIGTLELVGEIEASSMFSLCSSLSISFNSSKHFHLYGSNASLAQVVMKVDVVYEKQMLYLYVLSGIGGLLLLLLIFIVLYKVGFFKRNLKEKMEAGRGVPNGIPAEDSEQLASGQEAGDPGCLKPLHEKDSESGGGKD
Sequence of LFA-1 interactions with ICAM-1 (P05107 23-769): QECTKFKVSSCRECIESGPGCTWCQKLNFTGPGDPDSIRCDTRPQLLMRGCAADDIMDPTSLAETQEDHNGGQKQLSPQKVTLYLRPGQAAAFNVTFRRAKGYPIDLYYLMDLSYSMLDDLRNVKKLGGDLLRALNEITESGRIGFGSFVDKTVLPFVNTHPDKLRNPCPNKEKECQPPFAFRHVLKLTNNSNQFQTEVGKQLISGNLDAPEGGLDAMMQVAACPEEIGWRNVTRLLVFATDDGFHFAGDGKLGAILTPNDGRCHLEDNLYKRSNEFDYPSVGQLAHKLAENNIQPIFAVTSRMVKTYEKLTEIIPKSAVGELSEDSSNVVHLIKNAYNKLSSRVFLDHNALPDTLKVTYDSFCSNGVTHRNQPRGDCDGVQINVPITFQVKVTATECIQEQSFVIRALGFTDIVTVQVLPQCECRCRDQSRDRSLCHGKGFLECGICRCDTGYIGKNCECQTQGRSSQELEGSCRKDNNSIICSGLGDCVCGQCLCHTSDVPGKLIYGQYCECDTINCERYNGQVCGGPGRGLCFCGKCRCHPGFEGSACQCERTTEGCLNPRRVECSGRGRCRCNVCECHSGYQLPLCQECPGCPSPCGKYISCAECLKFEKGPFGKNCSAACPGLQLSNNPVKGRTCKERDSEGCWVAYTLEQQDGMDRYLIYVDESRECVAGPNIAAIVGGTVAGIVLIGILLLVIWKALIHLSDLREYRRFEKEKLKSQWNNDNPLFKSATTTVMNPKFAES

[12] = Individual degradates A and B by HPLC analysis on storage; format: physicochemical; settings: 5.0% w/v solutions, 40° C. vs 60° C., about nine weeks
Method: Two solutions containing 5.0% w/v of the compound of Formula 1 were prepared. The first solution was stored at 40° C. for about 9 weeks and the second solution was stored at 60° C. for a period of about nine weeks. The percentage of each of the two major degradates of Formula 1 (degradate A and degradate B) was measured by HPLC analysis for each solution after about every 2-4 weeks. The results of this experiment are graphically represented in FIG. 5.

[13] = Effect of pH on stability of formulation with antioxidant (metabisulfite); format: physicochemical; settings: metabisulfite salt, pH 6.0 and 7.0, about 40° C., about four months
Method: Two solutions of the compound of Formula 1 were prepared. The pH of the first solution was buffered to 6.0 and the pH of the second solution was also buffered to 7.0. A metabisulfite salt was added to both the solutions and were stored at a temperature of about 40° C. for a period of about four months. The percentage of total degradates was measured for each solution after about every four weeks. The results of this experiment are graphically represented in FIG. 10.

In the case of CS(=O)(=O)c1cccc(C[C@H](NC(=O)c2c(Cl)cc3c(c2Cl)CCN(C(=O)c2ccc4ccoc4c2)C3)C(=O)O)c1 [compound of Formula 1], the systemic clearance rate [1] is reported as “rapid systemic clearance rate”, the “rate of degradation, 5.0% w/v vs 1.0% w/v solution” value ([2]; total percentage degradation about every four weeks for six months) is reported as “greater than the rate of degradation of the 1.0 w/v solution” and the “final level of degradation, 5.0% w/v vs 1.0% w/v solution” value ([2]; when a limiting reactant such as oxygen is reduced, six months) is reported as “appear to reach the same level of degradation”. The “individual degradant versus ICH qualification threshold” value ([3]; 5.0% aqueous solution stored at 5° C., about 6 months) was “no individual degradant above the ICH qualification threshold”, the total degradation product ([3]; 5.0% aqueous solution stored at 5° C., after about 6 months) was “about 5%” and the “individual degradate versus ICH qualification threshold” value ([3]; 5.0% aqueous solution stored at 25° C.) was “no individual degradate above the ICH qualification threshold”. For the same compound, the total degradation product ([3]; 5.0% aqueous solution stored at 25° C., in about 2 months) was 5%, the “individual degradate versus ICH qualification threshold” value ([3]; 5.0% aqueous solution stored at 40° C.) was “no individual degradate above the ICH qualification threshold” and the total degradation product ([3]; 5.0% aqueous solution stored at 40° C., in about 2 months) was 5%. The “stability (total degradates), effect of pH” value [4] was “higher pH exhibited improved stability”, the “stability, effect of presence or absence of EDTA” value [5] was “did significantly change the stability” and the “stability (total degradates), effect of nitrogen sparging” value ([6]; pH 6.0 and pH 7.0, sparged vs not sparged) was “better stability”. For the same compound, the “stability (total degradates), pH 7.0 vs pH 6.0” value ([6]; with and without nitrogen sparging) was “improved stability”, the “stability (total degradates), effect of pH” value [7] was “higher pH exhibited better stability” and the “stability (total degradates), effect of added antioxidant” value [8] was “increased the stability”. For the same compound, the “stability (total degradates), comparison of antioxidants” value [9] was “best overall stability”, the “stability (total degradates), effect of added antioxidant” value ([10]; pH 6.0 with metabisulfite salt vs pH 6.0 without additives, about four months) was “increases the stability” and the “stability (total degradates), effect of increasing pH” value ([10]; pH 7.5 without antioxidant vs pH 6.0 without additives, about 4 months) was “increases the stability”. For the same compound, the “inhibition of LFA-1 interactions with ICAM-1” value [11] was “effective inhibitor”, the “% formation of degradates A and B, effect of storage temperature” value [12] was “did not significantly affect” and the “degradation and pH sensitivity of stability, effect of antioxidant” value [13] was “significantly reduces both the degradation of Formula 1 and the sensitivity of the stability of Formula 1 to pH”.
